Legend:
Experiment in all cases: competitive isoTOP-ABPP
Type in all cases: binding
[1] = target: T1, TRAP1 Heat shock protein 75 kDa, mitochondrial (Homo sapiens, UniProt Q12931); conditions: for isoTOP-ABPP ratio (R) at liganded lysine Q12931_K699 / isoTOP-ABPP reactivity ratio at lysine Q12931_K699 / R value (DMSO/fragment) for probe 1 labeling: 50 uM, in vitro; for isoTOP-ABPP ratio (R) at liganded lysine Q12931_K699: sol, 231; for isoTOP-ABPP reactivity ratio at lysine Q12931_K699 / R value (DMSO/fragment) for probe 1 labeling: 231 sol; for R value (DMSO/fragment) for probe 1 labeling: Q12931_K699
T1 construct: isoTOP-ABPP experiments performed in cell lysates (in vitro); endogenous in cells; host or cells: soluble proteome of human cancer cell lines (MDA-MB-231, Ramos, Jurkat)
T1 sequence (Q12931 60-704): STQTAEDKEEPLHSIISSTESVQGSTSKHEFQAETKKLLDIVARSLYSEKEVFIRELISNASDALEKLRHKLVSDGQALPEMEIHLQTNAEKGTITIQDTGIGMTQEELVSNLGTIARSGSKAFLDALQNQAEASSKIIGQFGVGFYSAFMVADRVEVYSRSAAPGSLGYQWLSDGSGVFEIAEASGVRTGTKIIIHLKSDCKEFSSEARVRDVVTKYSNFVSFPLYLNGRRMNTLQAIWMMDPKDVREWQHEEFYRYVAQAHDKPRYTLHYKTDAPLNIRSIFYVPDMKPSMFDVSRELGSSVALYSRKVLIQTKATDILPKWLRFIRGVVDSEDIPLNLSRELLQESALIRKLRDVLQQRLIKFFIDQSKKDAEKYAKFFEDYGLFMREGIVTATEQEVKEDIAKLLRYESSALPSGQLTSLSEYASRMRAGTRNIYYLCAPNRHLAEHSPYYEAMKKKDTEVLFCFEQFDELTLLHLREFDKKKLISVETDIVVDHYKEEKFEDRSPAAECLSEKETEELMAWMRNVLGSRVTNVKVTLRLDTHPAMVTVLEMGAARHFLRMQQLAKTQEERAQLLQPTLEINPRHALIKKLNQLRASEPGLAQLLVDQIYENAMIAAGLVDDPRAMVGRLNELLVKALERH
Method in brief: (§1)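 Here, isoTOP-ABPP measures loss of STP-alkyne labeling at individual lysines after fragment exposure in lysate. Activated esters are dosed at 50 μM, guanidinylating agents at 100 μM; the probe follows at 0.1 mM for 1 h. R ≥4 marks a liganded lysine.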

[2] = target: T2, DYNC1H1 Cytoplasmic dynein 1 heavy chain 1 (Homo sapiens, UniProt Q14204); conditions: for isoTOP-ABPP ratio (R) at liganded lysine Q14204_K1649 / isoTOP-ABPP reactivity ratio at lysine Q14204_K1649 / R value (DMSO/fragment) for probe 1 labeling: 50 uM, in vitro; for isoTOP-ABPP ratio (R) at liganded lysine Q14204_K1649: sol, 231; for isoTOP-ABPP reactivity ratio at lysine Q14204_K1649 / R value (DMSO/fragment) for probe 1 labeling: 231 sol; for R value (DMSO/fragment) for probe 1 labeling: Q14204_K1649
T2 construct: isoTOP-ABPP experiments performed in cell lysates (in vitro); endogenous in cells; host or cells: soluble proteome of human cancer cell lines (MDA-MB-231, Ramos, Jurkat)
Method in brief: as §1

[3] = target: T3, WARS Tryptophan--tRNA ligase, cytoplasmic (Homo sapiens, UniProt P23381); conditions: for isoTOP-ABPP ratio (R) at liganded lysine P23381_K256 / isoTOP-ABPP reactivity ratio at lysine P23381_K256 / R value (DMSO/fragment) for probe 1 labeling: 50 uM, in vitro; for isoTOP-ABPP ratio (R) at liganded lysine P23381_K256: sol, 231; for isoTOP-ABPP reactivity ratio at lysine P23381_K256 / R value (DMSO/fragment) for probe 1 labeling: 231 sol; for R value (DMSO/fragment) for probe 1 labeling: P23381_K256
T3 construct: isoTOP-ABPP experiments performed in cell lysates (in vitro); endogenous in cells; host or cells: soluble proteome of human cancer cell lines (MDA-MB-231; Ramos and Jurkat also prepared)
T3 sequence (P23381 1-471): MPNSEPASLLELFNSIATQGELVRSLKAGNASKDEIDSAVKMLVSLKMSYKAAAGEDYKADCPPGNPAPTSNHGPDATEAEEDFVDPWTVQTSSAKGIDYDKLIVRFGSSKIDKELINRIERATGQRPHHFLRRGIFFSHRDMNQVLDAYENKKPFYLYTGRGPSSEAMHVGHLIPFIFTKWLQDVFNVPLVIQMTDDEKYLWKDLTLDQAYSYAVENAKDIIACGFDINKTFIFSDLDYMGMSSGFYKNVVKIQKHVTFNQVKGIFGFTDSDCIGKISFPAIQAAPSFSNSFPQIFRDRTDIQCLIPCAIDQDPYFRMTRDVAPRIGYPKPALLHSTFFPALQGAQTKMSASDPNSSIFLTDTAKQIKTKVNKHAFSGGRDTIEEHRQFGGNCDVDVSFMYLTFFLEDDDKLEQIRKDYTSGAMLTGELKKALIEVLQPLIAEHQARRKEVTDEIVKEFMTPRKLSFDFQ
Method in brief: as §1

[4] = target: T4, MTOR Serine/threonine-protein kinase mTOR (Homo sapiens, UniProt P42345); conditions: for isoTOP-ABPP ratio (R) at liganded lysine P42345_K2066 / isoTOP-ABPP reactivity ratio at lysine P42345_K2066 / R value (DMSO/fragment) for probe 1 labeling: 50 uM, in vitro; for isoTOP-ABPP ratio (R) at liganded lysine P42345_K2066: sol, 231; for isoTOP-ABPP reactivity ratio at lysine P42345_K2066 / R value (DMSO/fragment) for probe 1 labeling: 231 sol; for R value (DMSO/fragment) for probe 1 labeling: P42345_K2066
T4 construct: isoTOP-ABPP experiments performed in cell lysates (in vitro); endogenous in cells; host or cells: soluble proteome of human cancer cell lines (MDA-MB-231; Ramos and Jurkat also prepared)
Method in brief: as §1

[5] = target: T5, HNRNPK Heterogeneous nuclear ribonucleoprotein K (Homo sapiens, UniProt P61978); conditions: for isoTOP-ABPP ratio (R) at liganded lysine P61978_K405 / isoTOP-ABPP reactivity ratio at lysine P61978_K405 / R value (DMSO/fragment) for probe 1 labeling: 50 uM, in vitro; for isoTOP-ABPP ratio (R) at liganded lysine P61978_K405: sol, 231; for isoTOP-ABPP reactivity ratio at lysine P61978_K405 / R value (DMSO/fragment) for probe 1 labeling: 231 sol; for R value (DMSO/fragment) for probe 1 labeling: P61978_K405
T5 construct: isoTOP-ABPP experiments performed in cell lysates (in vitro); endogenous in cells; host or cells: soluble proteome of human cancer cell lines (MDA-MB-231, Ramos, Jurkat)
Method in brief: as §1

T2 sequence (Q14204 whole entry, the tested form may be a part): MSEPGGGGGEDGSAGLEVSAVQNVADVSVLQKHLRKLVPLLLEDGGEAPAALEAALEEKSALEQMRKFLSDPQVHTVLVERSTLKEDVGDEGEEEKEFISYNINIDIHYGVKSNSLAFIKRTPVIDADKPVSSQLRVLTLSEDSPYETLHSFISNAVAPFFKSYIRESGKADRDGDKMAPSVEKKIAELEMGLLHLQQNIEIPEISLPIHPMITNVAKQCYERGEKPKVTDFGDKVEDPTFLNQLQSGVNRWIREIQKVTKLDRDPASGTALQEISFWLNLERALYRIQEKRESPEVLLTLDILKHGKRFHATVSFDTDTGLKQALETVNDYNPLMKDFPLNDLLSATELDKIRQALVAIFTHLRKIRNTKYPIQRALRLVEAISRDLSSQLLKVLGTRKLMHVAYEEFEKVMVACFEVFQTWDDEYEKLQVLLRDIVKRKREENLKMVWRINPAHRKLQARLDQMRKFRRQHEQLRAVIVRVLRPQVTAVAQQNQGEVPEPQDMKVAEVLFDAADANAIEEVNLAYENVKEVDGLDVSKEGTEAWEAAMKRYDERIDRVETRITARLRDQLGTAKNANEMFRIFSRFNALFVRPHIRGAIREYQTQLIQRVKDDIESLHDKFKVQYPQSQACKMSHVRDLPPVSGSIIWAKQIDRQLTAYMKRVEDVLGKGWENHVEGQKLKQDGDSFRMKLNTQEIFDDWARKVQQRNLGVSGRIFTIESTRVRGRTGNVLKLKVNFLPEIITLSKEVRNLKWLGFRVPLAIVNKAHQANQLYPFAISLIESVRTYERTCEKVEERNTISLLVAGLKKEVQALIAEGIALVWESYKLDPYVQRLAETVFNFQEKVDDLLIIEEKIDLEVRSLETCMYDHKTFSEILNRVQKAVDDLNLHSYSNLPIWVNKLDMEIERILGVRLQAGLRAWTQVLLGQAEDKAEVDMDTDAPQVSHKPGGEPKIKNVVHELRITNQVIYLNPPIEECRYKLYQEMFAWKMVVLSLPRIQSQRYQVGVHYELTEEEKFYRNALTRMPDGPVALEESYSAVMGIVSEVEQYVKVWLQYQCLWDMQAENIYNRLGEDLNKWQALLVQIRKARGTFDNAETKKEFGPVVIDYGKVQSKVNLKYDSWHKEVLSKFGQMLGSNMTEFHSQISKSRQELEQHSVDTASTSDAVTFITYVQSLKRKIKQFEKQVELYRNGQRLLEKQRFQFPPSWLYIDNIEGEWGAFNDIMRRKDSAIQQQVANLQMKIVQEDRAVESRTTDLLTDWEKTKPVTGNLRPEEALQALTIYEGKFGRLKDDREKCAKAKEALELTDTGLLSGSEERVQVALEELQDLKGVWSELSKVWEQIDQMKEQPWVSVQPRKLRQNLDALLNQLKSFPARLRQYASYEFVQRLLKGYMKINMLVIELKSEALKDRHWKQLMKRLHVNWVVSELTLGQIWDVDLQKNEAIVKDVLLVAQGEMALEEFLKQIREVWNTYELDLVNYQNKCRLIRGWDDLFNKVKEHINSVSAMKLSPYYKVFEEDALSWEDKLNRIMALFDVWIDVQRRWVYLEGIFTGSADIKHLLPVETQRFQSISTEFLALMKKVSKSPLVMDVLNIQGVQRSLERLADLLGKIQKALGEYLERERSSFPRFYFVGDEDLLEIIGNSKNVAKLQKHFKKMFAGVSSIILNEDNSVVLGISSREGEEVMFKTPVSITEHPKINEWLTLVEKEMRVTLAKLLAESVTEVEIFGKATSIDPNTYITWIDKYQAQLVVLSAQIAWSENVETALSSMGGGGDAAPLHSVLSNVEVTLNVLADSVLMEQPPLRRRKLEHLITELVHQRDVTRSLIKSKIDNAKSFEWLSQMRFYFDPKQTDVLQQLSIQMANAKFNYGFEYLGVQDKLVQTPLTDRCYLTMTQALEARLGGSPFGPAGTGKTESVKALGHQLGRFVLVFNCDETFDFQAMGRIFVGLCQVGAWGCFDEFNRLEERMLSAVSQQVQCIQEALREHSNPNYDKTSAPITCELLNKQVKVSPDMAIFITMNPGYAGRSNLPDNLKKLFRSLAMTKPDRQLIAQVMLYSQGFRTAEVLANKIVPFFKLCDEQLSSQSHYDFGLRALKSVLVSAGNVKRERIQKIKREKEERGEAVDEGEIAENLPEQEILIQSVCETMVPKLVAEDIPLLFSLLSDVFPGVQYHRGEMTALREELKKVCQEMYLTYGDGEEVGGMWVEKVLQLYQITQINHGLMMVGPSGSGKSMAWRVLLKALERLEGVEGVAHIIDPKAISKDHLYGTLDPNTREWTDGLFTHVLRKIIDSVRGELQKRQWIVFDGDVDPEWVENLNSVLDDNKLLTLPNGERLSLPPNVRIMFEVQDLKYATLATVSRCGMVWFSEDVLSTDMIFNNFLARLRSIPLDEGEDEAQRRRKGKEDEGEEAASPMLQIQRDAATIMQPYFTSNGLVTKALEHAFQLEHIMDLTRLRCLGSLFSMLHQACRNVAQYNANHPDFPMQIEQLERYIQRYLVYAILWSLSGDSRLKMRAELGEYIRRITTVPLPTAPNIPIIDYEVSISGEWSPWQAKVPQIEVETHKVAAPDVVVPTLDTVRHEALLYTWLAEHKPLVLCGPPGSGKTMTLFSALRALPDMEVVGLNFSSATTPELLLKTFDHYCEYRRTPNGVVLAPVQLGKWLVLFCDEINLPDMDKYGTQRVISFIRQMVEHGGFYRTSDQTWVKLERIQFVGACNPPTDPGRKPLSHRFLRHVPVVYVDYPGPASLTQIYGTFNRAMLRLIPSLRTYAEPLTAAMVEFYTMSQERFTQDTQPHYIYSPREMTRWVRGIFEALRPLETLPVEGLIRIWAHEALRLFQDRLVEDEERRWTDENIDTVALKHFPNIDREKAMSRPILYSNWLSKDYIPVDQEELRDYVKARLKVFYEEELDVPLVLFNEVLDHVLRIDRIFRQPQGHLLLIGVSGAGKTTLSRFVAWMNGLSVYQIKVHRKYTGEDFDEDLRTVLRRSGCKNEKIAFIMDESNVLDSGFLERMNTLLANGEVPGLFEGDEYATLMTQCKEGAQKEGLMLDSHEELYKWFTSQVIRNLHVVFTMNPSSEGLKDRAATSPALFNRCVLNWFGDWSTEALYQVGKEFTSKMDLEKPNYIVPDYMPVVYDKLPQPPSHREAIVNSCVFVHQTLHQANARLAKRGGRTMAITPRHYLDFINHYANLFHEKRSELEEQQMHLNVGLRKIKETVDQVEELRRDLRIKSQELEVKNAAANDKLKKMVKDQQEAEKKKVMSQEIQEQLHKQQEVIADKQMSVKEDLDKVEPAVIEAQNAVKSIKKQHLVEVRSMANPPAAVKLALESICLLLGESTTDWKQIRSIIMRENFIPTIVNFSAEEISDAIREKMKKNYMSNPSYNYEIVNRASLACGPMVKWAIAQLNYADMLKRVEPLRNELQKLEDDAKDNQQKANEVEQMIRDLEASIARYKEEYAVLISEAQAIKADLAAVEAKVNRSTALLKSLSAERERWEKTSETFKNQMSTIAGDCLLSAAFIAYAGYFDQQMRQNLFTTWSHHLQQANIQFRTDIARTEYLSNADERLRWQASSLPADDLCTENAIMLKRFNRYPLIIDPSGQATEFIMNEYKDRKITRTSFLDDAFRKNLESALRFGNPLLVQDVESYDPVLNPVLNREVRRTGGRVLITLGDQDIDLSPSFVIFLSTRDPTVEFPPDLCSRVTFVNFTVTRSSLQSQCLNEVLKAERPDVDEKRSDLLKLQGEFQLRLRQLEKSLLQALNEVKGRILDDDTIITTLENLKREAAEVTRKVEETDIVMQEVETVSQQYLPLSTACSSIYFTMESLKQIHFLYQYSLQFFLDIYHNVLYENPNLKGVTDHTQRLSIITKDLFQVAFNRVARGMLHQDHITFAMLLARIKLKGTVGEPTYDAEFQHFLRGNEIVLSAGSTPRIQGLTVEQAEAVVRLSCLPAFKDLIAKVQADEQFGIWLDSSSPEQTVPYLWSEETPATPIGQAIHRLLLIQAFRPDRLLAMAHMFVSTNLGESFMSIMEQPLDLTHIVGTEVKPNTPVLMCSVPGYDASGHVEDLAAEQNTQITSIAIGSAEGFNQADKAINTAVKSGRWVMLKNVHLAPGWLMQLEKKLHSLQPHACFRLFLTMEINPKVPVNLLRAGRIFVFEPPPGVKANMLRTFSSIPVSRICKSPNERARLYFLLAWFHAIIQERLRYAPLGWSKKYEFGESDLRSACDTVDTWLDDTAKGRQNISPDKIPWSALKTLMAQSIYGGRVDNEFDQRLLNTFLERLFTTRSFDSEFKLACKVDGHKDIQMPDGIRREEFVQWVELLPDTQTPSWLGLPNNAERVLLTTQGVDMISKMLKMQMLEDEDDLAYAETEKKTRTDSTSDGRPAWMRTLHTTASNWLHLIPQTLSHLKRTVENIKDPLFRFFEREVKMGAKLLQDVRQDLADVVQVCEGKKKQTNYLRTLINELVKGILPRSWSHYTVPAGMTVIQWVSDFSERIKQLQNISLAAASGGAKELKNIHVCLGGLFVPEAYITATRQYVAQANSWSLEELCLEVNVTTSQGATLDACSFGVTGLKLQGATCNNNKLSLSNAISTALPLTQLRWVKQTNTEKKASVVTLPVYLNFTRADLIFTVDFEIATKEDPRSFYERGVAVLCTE

SMILES: O=C(CC12CC3CC(CC(C3)C1)C2)Oc1ccc([N+](=O)[O-])cc1[N+](=O)[O-] [fragment 38, 2,4-Dinitrophenyl 2-(adamantan-1-yl)acetate]
- isoTOP-ABPP ratio (R) at liganded lysine Q12931_K699 [1]: 1.4
- isoTOP-ABPP ratio (R) at liganded lysine Q14204_K1649 [2]: 1.0
- isoTOP-ABPP ratio (R) at liganded lysine P23381_K256 [3]: 1.4
- isoTOP-ABPP ratio (R) at liganded lysine P42345_K2066 [4]: 1.1
- isoTOP-ABPP ratio (R) at liganded lysine P61978_K405 [5]: 20.0

SMILES: O=C(ON1C(=O)CCC1=O)c1cc(C(F)(F)F)cc(C(F)(F)F)c1 [fragment 46, 3,5-Bis(trifluoromethyl)benzoic acid NHS ester]
- isoTOP-ABPP ratio, lysine Q12931_K699 ([1]; 50 uM_231_sol_in vitro): 0.9
- isoTOP-ABPP ratio, lysine Q14204_K1649 ([2]; 50 uM_231_sol_in vitro): 1.3
- isoTOP-ABPP ratio, lysine P23381_K256 ([3]; 50 uM_231_sol_in vitro): 1.6
- isoTOP-ABPP ratio, lysine P42345_K2066 ([4]; 50 uM_231_sol_in vitro): 1.5
- isoTOP-ABPP ratio, lysine P61978_K405 ([5]; 50 uM_231_sol_in vitro): 1.1

SMILES: O=C(CN1C(=O)c2ccccc2C1=O)Oc1c(F)c(F)c(F)c(F)c1F [fragment 27, Pentafluorophenyl 2-(1,3-dioxoisoindolin-2-yl)acetate]
- isoTOP-ABPP reactivity ratio at lysine Q12931_K699 [1]: 0.7
- isoTOP-ABPP reactivity ratio at lysine Q14204_K1649 [2]: 4.2
- isoTOP-ABPP reactivity ratio at lysine P23381_K256 [3]: 2.7
- isoTOP-ABPP reactivity ratio at lysine P42345_K2066 [4]: 2.5
- isoTOP-ABPP reactivity ratio at lysine P61978_K405 [5]: 1.0

SMILES: O=C(CCc1cn(-c2ccccc2)nc1-c1ccccc1)Oc1c(F)c(F)c(F)c(F)c1F [fragment 19, Pentafluorophenyl 3-(1,3-diphenyl-1H-pyrazol-4-yl)propanoate]
- R value (DMSO/fragment) for probe 1 labeling [1]: 1.2
- R value (DMSO/fragment) for probe 1 labeling [2]: 1.0
- R value (DMSO/fragment) for probe 1 labeling [3]: 1.2
- R value (DMSO/fragment) for probe 1 labeling [4]: 0.9
- R value (DMSO/fragment) for probe 1 labeling [5]: 1.3

SMILES: O=C(CCc1cn(-c2ccccc2)nc1-c1ccccc1)Oc1ccc([N+](=O)[O-])cc1[N+](=O)[O-] [fragment 29, 2,4-Dinitrophenyl 3-(1,3-diphenyl-1H-pyrazol-4-yl)propanoate]
- isoTOP-ABPP reactivity ratio at lysine Q12931_K699 [1]: 2.2
- isoTOP-ABPP reactivity ratio at lysine Q14204_K1649 [2]: 1.1
- isoTOP-ABPP reactivity ratio at lysine P23381_K256 [3]: 0.9
- isoTOP-ABPP reactivity ratio at lysine P42345_K2066 [4]: 1.0
- isoTOP-ABPP reactivity ratio at lysine P61978_K405 [5]: 20.0

SMILES: CC(=O)Oc1ccc([N+](=O)[O-])cc1[N+](=O)[O-] [fragment 43, 2,4-Dinitrophenyl acetate]
- isoTOP-ABPP ratio (R) at liganded lysine Q12931_K699 [1]: 1.0
- isoTOP-ABPP ratio (R) at liganded lysine Q14204_K1649 [2]: 0.9
- isoTOP-ABPP ratio (R) at liganded lysine P23381_K256 [3]: 1.0
- isoTOP-ABPP ratio (R) at liganded lysine P42345_K2066 [4]: 1.6
- isoTOP-ABPP ratio (R) at liganded lysine P61978_K405 [5]: 1.3

SMILES: CC(C)(C)OC(=O)N=C(NC(=O)OC(C)(C)C)n1cccn1 [fragment 50, reference compound]
- isoTOP-ABPP ratio, lysine Q12931_K699 ([1]; 100 uM_231_sol_in vitro): 1.1
- isoTOP-ABPP ratio, lysine Q14204_K1649 ([2]; 100 uM_231_sol_in vitro): 1.3
- isoTOP-ABPP ratio, lysine P23381_K256 ([3]; 100 uM_231_sol_in vitro): 1.1
- isoTOP-ABPP ratio, lysine P42345_K2066 ([4]; 100 uM_231_sol_in vitro): 1.4
- isoTOP-ABPP ratio, lysine P61978_K405 ([5]; 100 uM_231_sol_in vitro): 1.3

SMILES: N#Cc1ccc(C(=O)Oc2ccc([N+](=O)[O-])cc2[N+](=O)[O-])cc1 [fragment 44, 2,4-Dinitrophenyl 4-cyanobenzoate]
- isoTOP-ABPP ratio, lysine Q12931_K699 ([1]; 50 uM_231_sol_in vitro): 0.9
- isoTOP-ABPP ratio, lysine Q14204_K1649 ([2]; 50 uM_231_sol_in vitro): 1.3
- isoTOP-ABPP ratio, lysine P23381_K256 ([3]; 50 uM_231_sol_in vitro): 1.1
- isoTOP-ABPP ratio, lysine P42345_K2066 ([4]; 50 uM_231_sol_in vitro): 1.7
- isoTOP-ABPP ratio, lysine P61978_K405 ([5]; 50 uM_231_sol_in vitro): 1.0

SMILES: O=C(CCc1ccc2c(c1)OCO2)Oc1ccc([N+](=O)[O-])cc1[N+](=O)[O-] [fragment 45, 2,4-Dinitrophenyl 3-(benzo[d][1,3]dioxol-5-yl)propanoate]
- isoTOP-ABPP ratio, lysine Q12931_K699 ([1]; 50 uM_231_sol_in vitro): 1.4
- isoTOP-ABPP ratio, lysine Q14204_K1649 ([2]; 50 uM_231_sol_in vitro): 1.0
- isoTOP-ABPP ratio, lysine P23381_K256 ([3]; 50 uM_231_sol_in vitro): 1.1
- isoTOP-ABPP ratio, lysine P42345_K2066 ([4]; 50 uM_231_sol_in vitro): 1.1
- isoTOP-ABPP ratio, lysine P61978_K405 ([5]; 50 uM_231_sol_in vitro): 1.1

SMILES: O=C(Oc1c(F)c(F)c(F)c(F)c1F)C(c1ccccc1)c1ccccc1 [fragment 20, Pentafluorophenyl 2,2-diphenylacetate]
- R value (DMSO/fragment) for probe 1 labeling [1]: 1.0
- R value (DMSO/fragment) for probe 1 labeling [2]: 1.0
- R value (DMSO/fragment) for probe 1 labeling [3]: 1.3
- R value (DMSO/fragment) for probe 1 labeling [4]: 1.0
- R value (DMSO/fragment) for probe 1 labeling [5]: 1.0

SMILES: O=C(Oc1ccc([N+](=O)[O-])cc1[N+](=O)[O-])c1ccc2ccccc2n1 [fragment 35, 2,4-Dinitrophenyl quinoline-2-carboxylate]
- isoTOP-ABPP ratio (R) at liganded lysine Q12931_K699 [1]: 0.9
- isoTOP-ABPP ratio (R) at liganded lysine Q14204_K1649 [2]: 1.0
- isoTOP-ABPP ratio (R) at liganded lysine P23381_K256 [3]: 1.1
- isoTOP-ABPP ratio (R) at liganded lysine P42345_K2066 [4]: 1.1
- isoTOP-ABPP ratio (R) at liganded lysine P61978_K405 [5]: 0.9

SMILES: O=C(Oc1c(F)c(F)c(F)c(F)c1F)c1cc(C(F)(F)F)cc(C(F)(F)F)c1 [fragment 21, Pentafluorophenyl 3,5-bis(trifluoromethyl)benzoate]
- R value (DMSO/fragment) for probe 1 labeling [1]: 0.9
- R value (DMSO/fragment) for probe 1 labeling [2]: 1.4
- R value (DMSO/fragment) for probe 1 labeling [3]: 1.1
- R value (DMSO/fragment) for probe 1 labeling [4]: 0.7
- R value (DMSO/fragment) for probe 1 labeling [5]: 1.0

SMILES: Cn1cc(CC(=O)Oc2ccc([N+](=O)[O-])cc2[N+](=O)[O-])c2ccccc21 [fragment 32, 2,4-Dinitrophenyl 2-(1-methyl-1H-indol-3-yl)acetate]
- isoTOP-ABPP reactivity ratio at lysine Q12931_K699 [1]: 2.0
- isoTOP-ABPP reactivity ratio at lysine Q14204_K1649 [2]: 1.2
- isoTOP-ABPP reactivity ratio at lysine P23381_K256 [3]: 0.9
- isoTOP-ABPP reactivity ratio at lysine P42345_K2066 [4]: 8.0
- isoTOP-ABPP reactivity ratio at lysine P61978_K405 [5]: 0.9
